Data published in US9468621B2, “Metal-salen complex compound responsive drug and intra-corporeal behavior control system for metal-salen complex compound” (IHI Corporation, priority 2011, dated 2016).
Where two headings read alike, the source gives them in different places.

Assays:
[1] = Calcein AM fluorescence (RFU) assay of chelation of the ferrous-salen complex compound by a metal chelating agent; type: biochemical; conditions: for EC50: Calcein AM, FIG. 1, read-out: EC50 (50% effective concentration of a maximum reaction value) of chelator, RFU recovery
Source text: If calcein (Calcein: fluorescent indicator) is used solely, it emits light (an RFU value increases); however, if calcein binds with a ferrous-salen complex compound, light emission diminishes (the RFU value decreases). Accordingly, if deferoxamine (deferoximine: the above-mentioned structural formula (II)) exists, iron ions of the ferrous-salen complex compound are adsorbed by the deferoxamine and ferrous-salen ligands are detached from calcein. As a result, the amount of the calcein-divalent-iron-salen complex compound decreases and the light emission […]. You can tell that as an amount of emitted light […], the metal-salen complex compound combines with the metal chelating agent.
The ferrous-salen complex compound (M=Fe, R═R′═H) indicated as the aforementioned structural formula (III) was produced based on descriptions of WO 2010/058280. […] Subsequently, 15 μM deferoxamine was administered to this ferrous-salen complex compound—calcein AM complex—and measurement was performed one hour later by using a measuring device (parkinermar ARVO) (λexc=485 nm, λem=520 nm).
A 15 μM of deferoxamine and vitamin C was administered to the ferrous-salen complex compound—calcein AM complex—which was produced in Example 1 above and measurement was performed one hour later by using the measuring device (parkinermar ARVO) (λexc=485 nm, λem=520 nm). As a result, it was also confirmed that when the ferrous-salen complex compound was added to Calcein AM, the RFU (Relative Fluorescent Unit) value was low. However, it was confirmed that when the chelator (deferoxamine and vitamin C) continued to be added, the RFU value increased.

[2] = tested on: POS-1 cells (mouse osteosarcoma cells); experiment: MTT cell survival assay: neutralizing cytotoxicity of the ferrous-salen complex compound; type: cell-based; conditions: 24 hours
Procedure: (§1) The cells were collected 24 hours later and an MTT reagent for cell survival assay was administered, 400 μL of 0.04-mol of HCl/isopropyl alcohol was added 45 minutes later, 100 μL of the obtained mixture was dispensed to 96-well plates, and absorbance at 570 nm was measured, thereby calculating cell viability.
as §1, with “and the” for “and an”

CC(=O)N(O)CCCCCNC(=O)CCC(=O)N(O)CCCCCNC(=O)CCC(=O)N(O)CCCCCN [deferoxamine, (N-(5-aminopentyl)-N-hydroxy-N′-[5-(N-hydroxy-3-{[5-(N-hydroxyacetamido)pentyl]carbamoyl}propanamido)pentyl]butanediamide)]
RFU (Relative Fluorescent Unit) value when the chelator continued to be added ([1]; chelator added to ferrous-salen complex compound-calcein AM complex, measured one hour later, λexc=485 nm, λem=520 nm): increased | EC50 ([1]; ferrous-salen complex compound (NBEI) 10 μM): 966 nM | EC50 ([1]; ferrous-salen complex compound (NBEI) 50 μM): 1630 nM

O=C(O)c1ccc(-n2nc(-c3ccccc3O)nc2-c2ccccc2O)cc1 [deferasirox, 4-[3,5-Bis(2-hydroxyphenyl)-1,2,4-triazol-1-yl]benzoic acid]
cell viability as chelator concentration increased (neutralization of toxicity) ([2]; 7.5 μM ferrous-salen complex compound (NBEI) plus deferasirox 0.1-15 μM, FIG. 2): increased | deferasirox concentration at which the effect on cell viability did not change further ([2]; 7.5 μM ferrous-salen complex compound (NBEI)): ≥ 1.8 µM

[Fe+2].[O-]c1ccccc1C=NCCN=Cc1ccccc1[O-] [ferrous-salen complex compound]
RFU (Relative Fluorescent Unit) value when added to Calcein AM ([1]; ferrous-salen complex compound added to Calcein AM, no chelator): low | cell viability ([2]; 7.5 μM, control = 100%, FIG. 2): decreased
